From patent US8986733B2, “Materials and methods for nerve repair” (University of Florida Research Foundation, Inc., priority 2001, dated 2015)

Assays:
rat sciatic nerve [1] = experiment: Interpositional acellular nerve grafting, GAP-43 axon scoring; assay type: in vivo
Text: Preparation of acellular nerve grafts treated with chondroitinase. Adult (180-200 g) female SPRAGUE DAWLEY rats (HARLAN, Indianapolis, Ind.) were used as nerve donors and recipient hosts. Donor rats were anesthetized with halothane and decapitated. Sciatic nerves were exposed through a gluteal muscle-splitting incision and isolated free of underlying fascia. A 15-mm nerve segment was excised rostral to the bifurcation into common peroneal and tibial nerves. The segments were rinsed with cold sterile Ringer's solution, stabilized by pinning the ends to a thin plastic support, and transferred to a cryogenic vial. The vials were submerged in liquid nitrogen for 2 minutes and then transferred to a 37° C. water bath for 2 minutes. This freeze/thaw cycle was repeated, yielding acellular nerve grafts that were then stored in liquid nitrogen. On the day before grafting, the nerve grafts were warmed to room temperature and incubated in 100 μl phosphate buffered saline pH 7.4 (PBS) containing 2 units/ml chondroitinase ABC (SIGMA, St. Louis, Mo.) or in PBS (vehicle) only for 16 hours at 37° C. The grafts were rinsed twice with Ringer's and kept on ice prior to use. The chondroitinase ABC preparation was highly purified and stated by the manufacturer to be essentially free of protease activity.
Interpositional nerve grafting for chondroitinase experiments. Twelve rats received bilateral acellular nerve grafts, one chondroitinase-treated and one vehicle-treated graft. Host rats were deeply anesthetized using xylazine (15 mg/kg, i.m.) and ketamine (110 mg/kg, i.p.). The sciatic nerve was exposed and supported by a plastic insert placed between the nerve and underlying tissue. The region of nerve halfway between the sciatic notch and bifurcation was first coated with fibrin glue. […]
The main grafts were sectioned serially on the transverse plane in recorded measure to assess the extent of axonal growth by microscopy. […] GAP-43-positive axon profiles were scored using IMAGE-PRO PLUS software (MEDIA CYBERNETICS, Silver Springs, Md.). […]

rat sciatic nerve [2] = experiment: Bilateral sciatic nerve crush injury (axonotmesis), GAP-43 axon scoring; assay type: in vivo; conditions: 2 days after injury; for axonal regeneration after nerve crush injury (GAP-43 immunoreactivity) vs vehicle: 1 U injected
Protocol: Surgical procedures for nerve transection and nerve crush experiments. All surgical procedures were performed according to Institutional Animal Care and Use Committee (IACUC) approved protocols. Young adult SPRAGUE DAWLEY rats (HARLAN Indianapolis, Ind.) were deeply anesthetized with xylazine (15 mg/kg, i.m.) followed by ketamine-HCl (110 mg/kg, i.p.). Six animals received bilateral nerve crush injuries. Sciatic nerves were exposed and then crushed with firm pressure for thirty seconds with a DUMONT #5 forceps at a site 4 mm distal to the tendon of the internal obdurator. The crush site was marked with an epineurial suture. In a separate set of experiments, eight rats received bilateral sciatic nerve transection injuries using serrated scissors. The proximal and distal stumps were […] by epineurial neurorrhaphy using 9-0 ETHILON sutures. Fibrin glue (fibrinogen and thrombin) was then applied to stabilize the union. In both injury models, the right sciatic nerves were injected 2-mm distal to the injury with chondroitinase ABC (1 U in 2 μl) (high-purity, protease-free; SIGMA CHEMICAL CO., St. Louis, […].). Left sciatic nerves (with the same injury as the right side) were injected with vehicle alone (0.1% bovine serum albumin in PBS). Muscle incisions were sutured and the skin closed with metal clips. After recovery from the anesthetic, animals were returned to standard housing. Two days (for crush injury) and four days (for transection injury) after surgery, nerves were removed under anesthesia and fixed as described below. One of the eight animals receiving nerve transection and repair was excluded because loss of continuity in one nerve occurred during convalescence.
The hypothesis that chondroitinase treatment improves axonal growth through the site of nerve crush injury was tested. Bilateral axonotmesis was achieved by severely crushing the sciatic nerves while maintaining the continuity of the nerve sheaths. […] Regenerating axons were labeled by GAP-43 immunofluorescence and scored by digital image analysis. […]

Substance: chondroitinase ABC
- latency of axonal regeneration into acellular nerve grafts (rat sciatic nerve [1]; 4-day and 8-day grafts): decreases the latency
- axonal penetration vs control grafts (rat sciatic nerve [1]; 4-day grafts, 0.3 mm from the host-graft interface): five-fold greater
- average number of axons (GAP-43-immunopositive profiles) entering grafts vs control grafts (rat sciatic nerve [1]; 8-day grafts, en bloc treated acellular syngrafts): more than three-fold greater
- latency or rate of axonal regeneration after crush (rat sciatic nerve [2]): no indication that the latency or rate of axonal regeneration was altered
- axonal regeneration after nerve crush injury (GAP-43 immunoreactivity) vs vehicle (rat sciatic nerve [2]): no significant difference
- axonal regeneration after nerve crush injury (GAP-43 immunoreactivity) vs vehicle (rat sciatic nerve [2]; listed as chondroitinase): not significantly effected
